How the values were obtained:
[1] = Catalase activity: H2O2 consumption followed with a hydrogen peroxide selective electrode; type: biochemical
Description: FIG. 4 is a line graph showing effects of 1 mM NaSCN on the consumption of H2O2 by 10150-Cl at a fixed concentration of 12.5 μM and various H2O2 concentrations. Legend: Cmpd 10150-Cl (circles); Cmpd 10150-Cl+SCN (1 mM) (triangles).
To test whether SCN was acting as a competing substrate in the catalase activity one examined the change in 10150-Cl catalase activity by following the disappearance of H2O2 over time with a H2O2 selective electrode in the presence or absence of 1 mM NaSCN.
Experimental Conditions: Effects of 1 mM NaSCN on the consumption of H2O2 by 10150-Cl was investigated at a fixed concentration of 12.5 μM and various H2O2 concentrations. H2O2 consumption was followed over time with a hydrogen peroxide selective electrode (HPO) using a free radical analyzer (WPI). Changes in pA were converted to H2O2 using a 5 point H2O2 standard curve. The data was fitted as a linear curve using Prizm software. The rate constant for 10150-Cl was 0.09±0.004 min^−1 and in the presence of 1 mM NaSCN was decreased to 0.02±0.004 min^−1.

rat brain homogenates = assay: Iron/ascorbate-initiated lipid peroxidation of rat brain homogenates, TBARS assay; type: biochemical; settings: comparison of the two salts
Description: Legend: Cmpd 10150-Cl (circles); Cmpd 10150-SCN (boxes).
The ability of the salts of the invention to inhibit lipid peroxidation was assessed as described by Ohkawa et al. (Anal. Biochem. 95:351 (1979)) and Yue et al. (J. Pharmacol. Exp. Ther. 263:92 (1992)). Iron and ascorbate can be used to initiate lipid peroxidation in tissue homogenates and the formation of thiobarbituric acid reactive species (TBARS) measured. Lipid peroxidation causes cell damage by radicals, which destroys lipids in cell membranes resulting in oxidative and inflammatory injury.
Both the chloride and thiocyanate salts of 10150 have similar lipid peroxide inhibition. Lipid peroxidation of rat brain homogenates was initiated with iron/ascorbate in the presence or absence of various concentrations of 10150-Cl or 10150-SCN. Lipid peroxidation was quantified using the TBARS assay with malondialdehyde standards. The data was normalized and curve fitted to determine the inhibitory concentrations that decreased lipid peroxidation by one-half (IC50).

[2] = system: Human bronchial epithelial cells (HBE); assay: Hypochlorite-induced injury of human bronchial epithelial cells, MTT viability assay; type: cell-based; settings: 250 μM HOCl for 30 minutes, 10 μM compound, MTT 24 hours post exposure, compared to 10150-Cl or NaSCN
Description: Bins (left to right): PBS (phosphate buffered saline); 250 uM HOCl; 250 uM HOCl+10 uM 10150-Cl; 250 uM HOCL+10 uM 10150-SCN; 250 uM HOCL+10 uM NaSCN.
Human bronchial epithelial cells (HBE) were exposed to 250 μM of hypochlorite (HOCl) for 30 minutes in the presence or absence of 10 μM of 10150-Cl, 10150-SCN, or NaSCN and cell injury was assessed 24 hours post HOCl exposure using the MTT viability assay.

[3] = Oxygen formation from H2O2 followed with an oxygen selective electrode (catalase to haloperoxidase conversion); type: biochemical
Description: FIG. 5 is a bar graph showing the inhibition of oxygen formation by 10150-Cl in the presence of hydrogen peroxide and thiocyanate. Bins (left to right); 25 uM Cmpd 10150; 50 uM Cmpd 10150. Legend: control (open); SCN 1 mM (closed).
It was examined whether SCN was being utilized as a substrate in a peroxidase reaction by looking at the inhibition of oxygen formation. If 10150-Cl was utilizing SCN along with H2O2, then no oxygen would be generated (see Eq 2).
To examine the rate of oxygen formation in the presence of 10150-Cl, H2O2 in the presence or absence of NaSCN, one utilized an oxygen selective electrode with a free radical analyzer (WPI). Changes in pA were converted to O2 using the difference of the O2 concentration in a saturated solution minus that of the solution made anaerobic by the addition of dithionite.
Experimental Conditions: Conversion of catalase activity to haloperoxidase activity of 10150-Cl with the addition of thiocyanate (SCN). Oxygen formation was followed with an oxygen selective electrode in a reaction mixture containing 10150 at either 25 or 50 μM and 1 mM H2O2 in the presence or absence of 1 mM SCN.

[4] = stated as known; cited from earlier work

Compound	catalase activity ([1]; comparison of the 10150-Cl and SCN salts)	IC50 of lipid peroxidation (TBARS formation) (rat brain homogenates)	protection against hypochlorite-mediated epithelial cell injury [2]	rate constant of H2O2 consumption in the presence of 1 mM NaSCN ([1]; 12.5 μM compound, various H2O2 concentrations, 1 mM NaSCN) [min⁻¹]	rate constant of H2O2 consumption ([1]; 12.5 μM compound, various H2O2 concentrations, absence of NaSCN) [min⁻¹]	oxygen formation on addition of SCN ([3]; 10150 at 25 or 50 μM, 1 mM H2O2, presence vs absence of 1 mM SCN)	haloperoxidase activity ([3]; thiocyanate as substrate, generating HOSCN)	catalase activity (dismutation of hydrogen peroxide into oxygen and water) [4]
[5,10,15,20 tetrakis(1,3-diethylimidazolium-2-yl)porphyrinato] manganese (III) pentathiocyanate [10150-SCN]	lower catalase activity than 10150-Cl salt	not statistically different	synergistic effects					
CCN1C=CN(CC)C1=C1C2=NC(=C(c3n(CC)cc[n+]3CC)C3=NC(=C(c4n(CC)cc[n+]4CC)c4ccc([n-]4)C(c4n(CC)cc[n+]4CC)=C4C=CC1=N4)C=C3)C=C2.[Cl-].[Cl-].[Cl-].[Cl-].[Cl-].[Mn+3] [10150-Cl, [5,10,15,20 tetrakis(1,3-diethylmidazolium-2-yl)porphyrinato] manganese (III) pentachloride]		not statistically different		0.02 ± 0.004	0.09 ± 0.004	dramatically inhibited the formation of oxygen	has haloperoxidase activity	known to possess catalase activity

Source: US20180251483A1, “THIOCYANATE SALTS FOR ANTI-INFLAMMATION” (National Jewish Health, priority 2015, published 2018)
